Patent publication US12630532B2, “Indole-substituted quinolines and their combination with Plk1 inhibitors for the treatment of cancer” (UNIVERSITY OF KENTUCKY RESEARCH FOUNDATION, priority 2021, dated 2026)

Key:
[1] = system: LS174T colon cancer cell xenografts; assay: In vivo antineoplastic activity and gross toxicity in LS174T xenografts
Procedure: Mouse studies were carried out with approval from the Institutional Animal Care and Use Committee of the University of Kentucky (2020-3531). All methods were performed in accordance with the relevant guidelines and regulations according to protocols. […] After tumors were established, mice were randomized according to tumor volume and divided into groups for treatments (five mice in each group, two tumors on each mouse).
The in vivo evaluation of ISQ-1 and BI2536 followed the approved protocol. After tumors were established, ISQ-1 was formulated in a mixture of Tween-80 (5%), DMSO (10%), PEG400 (25%) and PBS (60%) and was intraperitoneally administered to the ISQ-1 group at a daily dose of 20 mg/kg mouse body weight. The first day of treatment was set as day 0. At days 0, 4, and 7, BI2536 dissolved in 0.1 N HCl and then diluted 5-fold using 0.9% NaCl was given via gavage to the B12536 group. Mice in combination therapy group were treated with both ISQ-1 and BI2536 following aforementioned dosing schedules. At day 11 treatment was ceased and mice were sacrificed. Tumors and mouse weights were measured, and tumor volumes were calculated as Length×width^2/2.
Major biological assays were performed at least twice. Data were shown as mean SEM. For the mice study, five mice with two tumors on the lower flanks of each mouse were used in each treatment group. Sizes of the two tumors from each mouse were averaged, standardized by the tumor size on day 0, and log-transformed. ANOVA with Tukey's HSD test was used to compare the tumor size at the end of the study (day 11) between the combination therapy of ISQ-1 and B12536 and each single compound as well as the control. The equal variance assumption of ANOVA was assessed by Bartlett's test. All statistical studies were overseen in collaboration with a statistician in the University of Kentucky's Markey Cancer Center.

[2] = cited from earlier work
LS174T cells = assay: Cell proliferation inhibition assay (5 days, cell counting); format: cell-based
Procedure: Cell proliferation inhibition assays were done following a previous report (32). Cancer cells were seeded into 24-well plates at a density of 20,000 cells per well in 1 mL of culture medium and were cultured overnight at 37° C. Compounds and the vehicle control (DMSO) were added to the cells. After 5 days, the medium was removed, and 100 μL of trypsin was added. The cells were resuspended in phosphate-buffered saline (PBS) and were counted by Vi-CELL XR 2.03 (Beckman Coulter, Inc. USA). The ratio R of the number of viable cells in the compound treatment group to the number of viable cells in DMSO treatment group was taken as relative growth, and the percentage growth inhibition was calculated as (1−R)*100.

[3] = system: Wnt signaling target genes c-Myc and axin2; assay: Western blotting of Wnt signaling target genes in LS174T cells; format: cell-based; conditions: 24 hours
Procedure: (§1) Western blotting were performed according to previous procedures (25). Cells were split into 12-well plates. After 24 hours, compounds at indicated final concentrations were added to each well for another 24 hours unless otherwise noted. DMSO was used as a control. Cells were lysed in the appropriate volume of lysis buffer: 50 mM HEPES, 100 mM NaCl, 2 mM EDTA, 1% (v/v) glycerol, 50 mM NaF, 1 mM Na3VO4, 1% (v/v) Triton X-100, with protease inhibitors. Cell lysates were centrifuged, and supernatants were mixed with 6× protein loading buffer and boiled. The obtained samples were analyzed with standard western blotting methods with indicated antibodies.

AMPK = AMPK activation (western blotting, pAMPK/pACC) in LS174T cells; format: cell-based
Procedure: as §1

[4] = system: mitochondrial ETC (electron transport chain); assay: Seahorse assay (OCR) in Beas-2B cells; format: cell-based
Procedure: Seahorse assays were carried out following a published procedure (25). Briefly, 2.5×10^4 cells in 80 μL of medium were seeded in XF96 Cell Culture microplate for all experiments. On the next day, cell culture media were replaced with Seahorse XF modified media. Cells were treated with 1 μM of oligomycin A, 1.0 μM FCCP and mixture of 1.0 μM of rotenone and 1.0 μM of antimycin A in standard mitochondrial stress test conditions. To determine the uncoupler effects, FCCP was replaced with an equal volume of DMSO, or a compound to be tested in DMSO solution.

[5] = system: mitochondrial ETC complex I; assay: Mitochondrial ETC complex activity measurements using PMP-permeabilized cells; format: cell-based; conditions: pyruvate substrate
Procedure: Mitochondrial ETC complex activity measurements were taken using the Agilent Seahorse Assay with XF PMP (Agilent, Santa Clara, CA) following manufacturer's instructions. Adherent monolayer cells were gently washed with mitochondrial assay solution (MAS) (220 mM mannitol, 70 mM sucrose, 10 mM KH2PO4, 5 mM MgCl2, 2 mM HEPES, 1 mM EGTA, and 0.2% (w/v) fatty acid free BSA) and cell growth media was replaced with MAS supplemented with 4 mM adenosine diphosphate (ADP), 10 mM pyruvate, and 1 nM PMP. Following calibration, the assay was immediately performed by measuring baseline with two cycles of 0.5 min mixing, 0.5 min waiting, and 2 min measuring. After baseline measurements, sequential injections of DMSO, compounds of interest or 2 μM rotenone, 10 mM succinate, 2 μM antimycin A, and a combination of 10 mM ascorbate and 100 μM TMPD were also performed with each followed by two cycles of 0.5 min mixing, 0.5 min waiting, and 2 min measuring. Data were then normalized to cell counts using the Biotek Cytation 1 (BioTek Instruments, Winooski, VT, USA).

Plk1 = assay: Western blotting of cell signaling pathways in LS174T cells; format: cell-based; conditions: LS174T colon cancer cells, 24 hours
Procedure: as §1

Row | SMILES | gross toxicities on the basis of mouse weight measurements ([1]; mouse, in vivo) | tumor growth of LS174T xenografts ([1]; nude mice, ISQ-1 20 mg/kg daily i.p., BI2536 30 mg/kg twice a week by gavage, day 11) | antitumor activity in Phase II clinical trials ([2]; Phase II) | safety in phase I clinical trials ([2]; phase I) | percentage inhibition of LS174T cell proliferation at 500 nM, compared among ISQs (FIG. 2B) (LS174T cells; 500 nM) | inhibition at 0.062 µM (LS174T cells; Homo sapiens, LS174T, 120 h, 62 nM, 5 days) [%] | inhibition at 0.125 µM (LS174T cells; Homo sapiens, LS174T, 120 h, 125 nM, 5 days) [%] | inhibition at 0.25 µM (LS174T cells; Homo sapiens, LS174T, 120 h, 250 nM, 5 days) [%] | inhibition at 0.5 µM (LS174T cells; Homo sapiens, LS174T, 120 h, 500 nM, 5 days) [%] | IC50 (LS174T cells; Homo sapiens, dose response studies, LS174T, read-out: IC50 values in cell proliferation assays) [µM] | effect on Wnt signaling target genes c-Myc and axin2 [3] | AMPK activation (AMPK) | ETC complex V inhibition (oligomycin replaced with compound) [4] | uncoupler effect (FCCP replaced with compound) [4] | ETC complex I inhibition (pyruvate/NADH-linked respiration) [5] | Plk1 expression upon drug treatment (Plk1)
1 | CC[C@@H]1C(=O)N(C)c2cnc(Nc3ccc(C(=O)NC4CCN(C)CC4)cc3OC)nc2N1C1CCCC1 [BI2536, reference compound] | No gross toxicities | inhibited tumor growth but did not induce tumor regression | only limited antitumor activity | safe | – | – | – | – | – | – | – | – | – | – | – | –
2 | Cn1cc(-c2cc3ccc(N4CCC(C#N)CC4)cc3nc2N)c2ccccc21 [ISQ-7, 1-(2-Amino-3-(1-methyl-1H-indol-3-yl)quinolin-7-yl)piperidine-4-carbonitrile] | – | – | – | – | comparable to the N,N-dimethylamino group in ISQ-1 | 19 ± 5.5 | 89 ± 0.2 | 98 ± 0.6 | 97 ± 0.7 | ~0.1 | strongly inhibited | activated AMPK | did not inhibit ETC complex V | no uncouplers | inhibited complex I | induced
